Test results as given in ChEMBL document CHEMBL3232884, “Design, synthesis, and biological evaluation of novel pyridine-bridged analogues of combretastatin-A4 as anticancer agents” (J Med Chem, 2014).
Active and inactive are the calls of the source. No cut-off for these calls is given here.

How the values were obtained:
HeLa [1] = experiment: Cytotoxicity against human HeLa cells after 72 hrs by resazurin based fluorescence assay; type: functional, cell-based
A549 = experiment: Cytotoxicity against human A549 cells after 72 hrs by resazurin based fluorescence assay; type: functional, cell-based
MDA-MB-231 [2] = experiment: Cytotoxicity against human MDA-MB-231 cells after 72 hrs by resazurin based fluorescence assay; type: functional, cell-based
Tubulin (Homo sapiens) = Tubulin (Homo sapiens) (UniProt P68371+Q9H4B7+P0DPH7+P68366+Q13509+Q71U36+P04350+Q3ZCM7+P07437+P68363+Q9BQE3+Q6PEY2+Q13885+Q9BVA1+Q9BUF5); experiment: Displacement of colchicine from tubulin (unknown origin) at 0.1 to 125 uM after 1 hr by HPLC-MS/MS analysis; type: protein-complex assay
Tubulin (Bos taurus) [3] = target: T1, Tubulin (Bos taurus) (UniProt Q6B856+Q862L2+Q862F3); experiment: Inhibition of bovine brain tubulin polymerization at 10 uM after 60 mins by spectrophotometric analysis
Tubulin (Bos taurus) [4] = target: T1, Tubulin (Bos taurus); experiment: Inhibition of bovine brain tubulin polymerization at 1 uM after 60 mins by spectrophotometric analysis
Chorioallantoic membrane = experiment: Antiangiogenic activity in chicken embryo chorioallantoic membrane model assessed as inhibition of bFGF/VEGF-induced new vessel growth; type: functional, tissue-based; details: Gallus gallus
[5] = Plasma concentration in C57BL/6 mouse at 5 mg/kg, po after 1 hr; type: ADME, organism-based; design: dose 5 mg/kg, route oral
MDA-MB-231 [6] = experiment: Antimicrotubule activity in human MDA-MB-231 cells assessed as reduction of interphase microtubule network at 1 uM after 24 hrs by indirect immunofluorescence technique; type: functional, cell-based
Tubulin (Bos taurus) [7] = target: T1, Tubulin (Bos taurus); experiment: Induction of bovine brain tubulin polymerization at 1 uM after 60 mins by spectrophotometric analysis
HeLa [8] = experiment: Antimicrotubule activity in human HeLa cells assessed as reduction of interphase microtubule network at 1 uM after 24 hrs by indirect immunofluorescence technique; type: functional, cell-based
[9] = Plasma concentration in C57BL/6 mouse at 5 mg/kg, po after 3 hrs; type: ADME, organism-based; design: dose 5 mg/kg, route oral
HeLa [10] = experiment: Cell cycle arrest in human HeLa cells assessed as accumulation at G0/G1 phase at 1 uM after 24 hrs using propidium iodide staining by flow cytometry (reference value: 61.60%); type: functional

SMILES	IC50 (HeLa [1]; Homo sapiens, HeLa, 72 h) [µM]	IC50 (A549; Homo sapiens, A549, 72 h) [µM]	IC50 (MDA-MB-231 [2]; Homo sapiens, MDA-MB-231, 72 h) [µM]	also measured
COc1ccc(-c2cccc(-c3ccc(OC)c(OC)c3)n2)cc1OC	> 25	> 50	> 50	–
COc1ccc(-c2cccc(-c3ccc(O)cc3)n2)cc1	> 50	> 25	> 25	–
COc1ccc(-c2cccc(-c3ccccc3OC)n2)c(OC)c1	> 25	> 50	> 25	–
COc1ccc(-c2cccc(-c3cc(OC)c(OC)c(OC)c3)n2)cc1OC	0.026	> 50	2.49	–
COc1ccc(-c2cccc(-c3c(OC)cccc3OC)n2)c(OC)c1	> 50	> 100	> 100	–
COc1ccc(-c2cccc(-c3ccc(O)cc3)n2)cc1OC	0.86	> 100	> 50	–
COc1ccc(-c2cccc(-c3ccc(OC)cc3OC)n2)c(OC)c1	0.011	0.079	0.075	–
COc1ccc(-c2cccc(-c3ccc(OC)c(OC)c3)n2)c(OC)c1	> 50	> 25	13	–
COc1cc(-c2cccc(-c3ccc(O)cc3)n2)cc(OC)c1OC	8	> 25	10	–
COc1ccc(-c2cccc(-c3cc(OC)c(OC)c(OC)c3)n2)cc1	> 50	> 50	> 25	–
COc1ccc(-c2cccc(-c3ccc(OC)c(O)c3)n2)c(OC)c1 [listing 1 of 3 here]	–	–	–	inhibition (Tubulin (Homo sapiens)): Active; inhibition (Tubulin (Bos taurus) [3]): 57%; inhibition (Tubulin (Bos taurus) [4]): inactive; growth inhibition (GI) (Chorioallantoic membrane): Active
COc1ccc(-c2cccc(-c3ccc(OC)c(O)c3)n2)c(OC)c1 [listing 2 of 3 here]	0.0014	0.044	0.0046	concentration at 1 h [5]: 9.2 ng/mL
COc1ccc(-c2ccnc(-c3ccc(OC)cc3OC)c2)c(OC)c1	> 25	> 50	> 50	–
COc1cc(-c2ccc(Br)cn2)cc(OC)c1OC	14	> 25	12.1	–
COc1ccc(-c2ccc(-c3cc(OC)c(OC)c(OC)c3)nc2)cc1OC	> 25	> 50	> 50	–
COc1ccc(-c2cccc(Br)n2)c(OC)c1	> 50	> 50	> 100	–
COc1cc(-c2cccc(-c3cc(OC)c(OC)c(OC)c3)n2)cc(OC)c1OC	1	> 50	11	–

SMILES	IC50 (HeLa [1]; Homo sapiens, HeLa, 72 h) [µM]	IC50 (A549; Homo sapiens, A549, 72 h) [µM]	IC50 (MDA-MB-231 [2]; Homo sapiens, MDA-MB-231, 72 h) [µM]	also measured
COc1ccc(-c2cccc(-c3ccc(OC)cc3OC)n2)cc1	0.0038	0.089	0.0031	Activity (MDA-MB-231 [6]): Active; inhibition (Tubulin (Bos taurus) [3]): inactive; inhibition (Tubulin (Bos taurus) [4]): inactive; Activity (Tubulin (Bos taurus) [7]): Active; growth inhibition (GI) (Chorioallantoic membrane): Active; Activity (HeLa [8]): Active
COc1ccc(-c2cccc(-c3ccc(OC)c(OC)c3)n2)cc1	> 25	> 25	> 25	–
COc1cc(-c2ccnc(-c3cc(OC)c(OC)c(OC)c3)c2)cc(OC)c1OC	0.79	7.86	2.63	–
COc1ccc(-c2cccc(-c3ccc(OC)cc3)n2)cc1	2	> 100	9	–
COc1ccc(-c2cccc(-c3cccc(OC)c3OC)n2)c(OC)c1	> 50	> 50	> 50	–
COc1ccc(-c2cccc(-c3c(OC)cc(OC)cc3OC)n2)c(OC)c1	> 25	> 50	> 50	–
COc1ccc(/C=C\c2cc(OC)c(OC)c(OC)c2)cc1O [COMBRETASTATIN A4]	0.0009	0.0038	0.0028	concentration at 3 h [9]: 2.1 ng/mL; Activity (MDA-MB-231 [6]): Active; Activity (HeLa [10]): 37%; inhibition (Tubulin (Bos taurus) [3]): Active; inhibition (Tubulin (Bos taurus) [4]): 35%; concentration at 1 h [5]: 2.3 ng/mL; growth inhibition (GI) (Chorioallantoic membrane): Active; Activity (HeLa [8]): Active
COc1ccc(-c2cccc(Br)n2)cc1	2	2	10	–
COc1cc(OC)cc(-c2cccc(-c3ccc(OC)cc3OC)n2)c1	> 50	> 25	> 25	–
COc1ccc(-c2ccc(-c3ccc(OC)cc3OC)nc2)c(OC)c1	> 50	> 100	> 100	–
COc1cccc(-c2cccc(-c3ccc(OC)cc3OC)n2)c1	0.067	0.56	9.02	–
COc1ccc(-c2cccc(-c3ccc(O)cc3)n2)c(OC)c1	> 100	4.22	17.2	–
COc1cc(-c2ccc(-c3cc(OC)c(OC)c(OC)c3)nc2)cc(OC)c1OC	2.68	> 100	11	–
COc1ccc(-c2cccc(-c3ccc(OC)c(O)c3)n2)c(OC)c1 [listing 3 of 3 here]	–	–	–	IC50 (HeLa [1]; hela): 0.0026 µM; IC50 (A549; a549): 0.042 µM; IC50 (MDA-MB-231 [2]; mda-mb-231): 0.0054 µM
COc1cc(-c2cccc(Br)n2)cc(OC)c1OC	12	9	6	–
COc1ccc(-c2cccc(Br)n2)cc1OC	> 50	> 25	> 25	–
